Values of other authors as cited in paper PMC11259557 (Cancer Medicine, 2024).
Like-named read-outs stand apart in the source and are kept apart here.

Assays:
[1] = system: multiple myeloma
[2] = set-up: method as in PMID 26337806, PMID 27196567

For COC[C@H](NC(=O)c1cnc(C)s1)C(=O)N[C@@H](COC)C(=O)N[C@@H](Cc1ccccc1)C(=O)[C@@]1(C)CO1 [oprozomib], the “patients who experience diarrhea” value is given as “Nearly all patients”.
For CC(C)C[C@H](NC(=O)[C@H](CCc1ccccc1)NC(=O)CN1CCOCC1)C(=O)N[C@@H](Cc1ccccc1)C(=O)N[C@@H](CC(C)C)C(=O)[C@@]1(C)CO1 [carfilzomib], the DCR ([1]; phase I trial) is listed as 39%.
For CC(C)C[C@H](NC(=O)CNC(=O)c1cc(Cl)ccc1Cl)B(O)O [ixazomib], the T max [2] is listed as 1 to 1.5 h, the half-life [2] is listed as 140 to 150 h and the DCR ([1]; monotherapy) is listed as 50%. For the same molecule, the “incidence of decreased platelet counts” value was 43%, the “peripheral neuropathy, any grade” value (patients) was 27% and the “peripheral neuropathy, grade 3” value (patients) was 2%. For the same molecule, the incidence of diarrhea (phase 1 study in RRMM) was 38%, the “incidence of grade ≥3 diarrhea” value (phase 1 study in RRMM) was 17% and the “incidence of peripheral neuropathy” value (phase 1 study in RRMM) was 20%. For the same molecule, the “rate of grade ≥3 AEs” value (phase 1 study in RRMM) was 53%, the incidence of diarrhea (real-world settings) was 26.2% and the “incidence of peripheral neuropathy” value (real-world settings) was 35%. The “incidence of ≥grade 3 diarrhea” value (real-world settings) was 13.9%, the “incidence of ≥grade 3 peripheral neuropathy” value (real-world settings) was 3% and the “participants who discontinued due to AEs” value (study by Kumar et al.) was 12%.
For CC(C)C[C@H](NC(=O)[C@@H](NC(=O)c1cccc(-c2ccccc2)n1)[C@@H](C)O)B(O)O [delanzomib], the “incidence of grade ≥3 diarrhea” value is given as 19% and the “incidence of peripheral neuropathy” value is given as 21%.
